These results are taken from patent US11001590B2, “Pyrazolopyrimidine derivatives” (BAYER ANIMAL HEALTH GMBH, priority 2016, dated 2021).

Molecules are shown by their SMILES. Bounds are passed on as bounds.

Data set [1] relates to Dirofilaria immitis microfilariae. Briefly: In vitro assay 3: Dirofilaria immitis microfilariae (DIROIM L1), motility. Conditions: 72 h, reduction of motility vs negative control, 72 h incubation.
In data set [2] the test system is Dirofilaria immitis third-stage larvae. The experiment in a line: In vitro assay 4: Dirofilaria immitis (DIROIM L4), motility of larvae. Conditions: 72 h.
Data set [3] relates to Litomosoides sigmodontis third-stage larvae. Briefly: In vitro assay 7: Litomosoides sigmodontis L3 (LTMOSI), motility. Conditions: 72 h, reduction of motility vs negative control, 72 h incubation.
Method: In Vitro Assay 7: Litomosoides Siqmodontis L3 (LTMOSI)
10 Litomosoides sigmodontis third-stage larvae, which were freshly isolated from the pleural cavity of an infected rodent, were added to wells of a microtitre plate containing a nutrient medium and the test compound in DMSO. Compounds were tested in concentration-response assay in duplicate. Larvae exposed to DMSO and no test compounds were used as negative controls. Larvae were evaluated after 72 h of incubation with the compound. Efficacy was determined as the reduction of motility in comparison to the negative control. Based on the evaluation of a wide concentration range, concentration-response curves as well as ECso-values were calculated.
The nature of data set [4]: log P by HPLC on reversed phase columns (Method L0; [a] acidic, [b] neutral range).
Method: Calibration was done with straight-chain alkan-2-ones (with 3 to 16 carbon atoms) with known log P values (measurement of log P values using retention times with linear interpolation between successive alkanones). Lambda-max-values were determined using UV-spectra from 200 nm to 400 nm and the peak values of the chromatographic signals.
The target in a further data set is C. elegans Slo-1a (Caenorhabditis elegans, UniProt Q95V25). Briefly: In vitro assay 1: C. elegans Slo-1a, action at a recombinant C. elegans CHO cell line (membrane potential measurement).
C. elegans Slo-1a, sequence (Q95V25 whole entry): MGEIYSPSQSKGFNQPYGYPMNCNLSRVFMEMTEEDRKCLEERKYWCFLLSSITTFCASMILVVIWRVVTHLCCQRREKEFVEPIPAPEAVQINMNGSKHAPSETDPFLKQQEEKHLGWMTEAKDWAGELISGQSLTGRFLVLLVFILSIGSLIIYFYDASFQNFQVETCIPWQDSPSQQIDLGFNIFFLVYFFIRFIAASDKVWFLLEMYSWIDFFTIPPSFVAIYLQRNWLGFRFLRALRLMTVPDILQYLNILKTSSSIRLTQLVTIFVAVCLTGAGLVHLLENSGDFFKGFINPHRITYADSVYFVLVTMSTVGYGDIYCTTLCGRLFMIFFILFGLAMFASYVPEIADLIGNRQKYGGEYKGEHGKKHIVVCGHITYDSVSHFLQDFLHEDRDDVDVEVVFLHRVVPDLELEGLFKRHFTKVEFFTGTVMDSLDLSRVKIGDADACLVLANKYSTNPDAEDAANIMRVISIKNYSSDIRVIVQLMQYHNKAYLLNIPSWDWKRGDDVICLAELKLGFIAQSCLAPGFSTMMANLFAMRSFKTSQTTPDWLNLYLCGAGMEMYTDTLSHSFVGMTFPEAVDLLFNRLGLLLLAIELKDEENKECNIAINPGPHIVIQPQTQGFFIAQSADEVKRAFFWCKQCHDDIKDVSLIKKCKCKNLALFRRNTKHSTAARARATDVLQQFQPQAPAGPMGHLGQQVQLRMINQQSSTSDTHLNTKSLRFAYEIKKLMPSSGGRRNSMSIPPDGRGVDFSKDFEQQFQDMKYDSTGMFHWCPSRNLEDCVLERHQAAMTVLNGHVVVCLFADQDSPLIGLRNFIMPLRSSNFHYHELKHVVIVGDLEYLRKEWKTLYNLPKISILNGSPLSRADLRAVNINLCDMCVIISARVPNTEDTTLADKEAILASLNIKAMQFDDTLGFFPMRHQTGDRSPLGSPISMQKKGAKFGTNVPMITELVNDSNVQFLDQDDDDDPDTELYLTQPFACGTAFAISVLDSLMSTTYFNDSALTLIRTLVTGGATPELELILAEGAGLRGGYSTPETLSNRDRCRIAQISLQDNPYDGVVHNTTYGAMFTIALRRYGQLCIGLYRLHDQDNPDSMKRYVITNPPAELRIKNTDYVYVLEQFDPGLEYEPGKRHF

Method for C. elegans Slo-1a: In Vitro Assay 1: C. Eleqans Slo-La—Action at a Recombinant C. elegans Cell Line
Cells were cultured at 37° C. and 5% CO2 in MEMalpha with Gutamax I (Invitrogen, Nr.: 32571), supplemented with 10% (v/v) heat inactivated fetal bovine serum (Invitrogen, Nr.: 10500), G418 (1 mg/ml, Invitrogen, Nr.: 10131). Cells were detached using Accutase (Sigma, Nr.: A6964).
Membrane Potential Measurements
Laboratory compound testing was performed on 384-well microtiter plates (MTPs, Greiner, Nr.: 781092). 8000 cells/well were plated onto 384-well MTPs and cultured for 20 to 24 hours at 37° C. and 5% CO2. After removal of the cell culture medium, the cells were washed once with tyrode (150 mM NaCl, 0.3 mM KCl, 2 mM CaCl2, 1 mM MgCl2, 0.8 mM NaH2PO4, 5 mM Glucose, 28 mM Hepes, pH 7.4) and then loaded with the voltage sensitive dye of the Membrane Potential Assay Kit diluted in tyrode for 1 h at room temperature.
After starting the measurement of fluorescence using a FLIPR Tetra (Molecular Devices, Exc. 510-545 nm, Emm. 565-625 nm), test compounds were added followed by the addition of KCl tyrode (final assay concentration: 70 mM KCl, 2 mM CaCl2, 1 mM MgCl2, 0.8 mM NaH2PO4, 5 mM Glucose, 28 mM Hepes, pH 7.4, including the voltage sensitive dye). The measurement was completed after 7 minutes.

Turning to `Cc1nn2c(C3CC3)c(C(=O)N[C@H]3CCc4ccccc43)cnc2c1-c1c(F)cccc1F` [Example 405], the EC50 in data set [1] is under 0.1 µg/mL; in data set [2], under 0.1 µg/mL; in data set [3] it was under 0.1 µg/mL; at C. elegans Slo-1a, 3.16 nM. This molecule came in with a chromatographic logP in data set [4] of 3.66.

As to `Cc1nn2c(C(C)C)c(C(=O)N[C@H]3CCCc4ccccc43)cnc2c1-c1c(F)cccc1F` [Example 98], the EC50 was under 0.1 µg/mL in data set [1], under 0.1 µg/mL in data set [2], under 0.1 µg/mL in data set [3] and 12.6 nM on C. elegans Slo-1a. The chromatographic logP in data set [4] was 4.67.

For `Cc1nn2c(C(C)C)c(C(=O)N[C@H]3CCOc4ccccc43)cnc2c1-c1c(Cl)cccc1Cl` [Example 154], the EC50 in data set [1] is under 0.1 µg/mL; in data set [2], under 0.1 µg/mL; in data set [3], under 0.1 µg/mL; on C. elegans Slo-1a, 6.31 nM. Moreover, the chromatographic logP in data set [4] turned out to be 4.56.

Consider `Cc1nn2c(C(C)C)c(C(=O)N[C@H]3CCOc4ccccc43)cnc2c1-c1ccccc1Cl` [Example 107], for which the EC50 in data set [1] is under 0.1 µg/mL; in data set [2], under 0.1 µg/mL; in data set [3], under 0.1 µg/mL; at C. elegans Slo-1a, 5.01 nM. In addition, the chromatographic logP in data set [4] was 4.37.

As for `Cc1nn2c(C(C)C)c(C(=O)N[C@H]3CCCc4ccccc43)cnc2c1-c1cccc(F)c1F` [Example 134], the EC50 in data set [1] was under 0.1 µg/mL; in data set [2] it was under 0.1 µg/mL; in data set [3], under 0.1 µg/mL; at C. elegans Slo-1a, 12.6 nM. Besides, the chromatographic logP in data set [4] was 4.9.

For the molecule `Cc1nn2c(C3CC3)c(C(=O)N[C@H]3CCOc4ccccc43)cnc2c1-c1c(F)cccc1Cl` [Example 458], the EC50 in data set [1] was under 0.1 µg/mL; in data set [2], under 0.1 µg/mL; in data set [3], under 0.1 µg/mL; on C. elegans Slo-1a, 1.58 nM. The chromatographic logP in data set [4] amounted to 3.65.

In the case of `COCc1cccc(-c2c(C)nn3c(C(C)C)c(C(=O)N[C@H]4CCc5ccccc54)cnc23)c1` [Example 300], the EC50 is under 1 µg/mL in data set [1], under 0.1 µg/mL in data set [2], under 0.1 µg/mL in data set [3] and 6.31 nM at C. elegans Slo-1a. The molecule further had a chromatographic logP in data set [4] of 4.43.

Turning to `Cc1nn2c(C(C)C)c(C(=O)N[C@H]3CCOc4ccccc43)cnc2c1-c1cncc(Cl)c1` [Example 402], the EC50 in data set [1] is under 0.1 µg/mL; in data set [2], under 0.1 µg/mL; in data set [3], under 0.1 µg/mL; at C. elegans Slo-1a it was 20 nM. Moreover, the chromatographic logP in data set [4] turned out to be 3.91.

Consider `CC(C)c1c(C(=O)N[C@H]2CCc3ccccc32)cnc2c(-c3ccccc3Cl)c(Cl)nn12` [Example 79], for which the EC50 in data set [1] is under 0.1 µg/mL; in data set [2], under 0.1 µg/mL; in data set [3], under 0.1 µg/mL; at C. elegans Slo-1a it was 20 nM. The molecule further came in with a chromatographic logP in data set [4] of 4.79.

As for `Cc1nn2c(C(C)C)c(C(=O)N[C@H]3CCOc4ccccc43)cnc2c1-c1cccc(F)c1Cl` [Example 191], the EC50 in data set [1] was under 0.1 µg/mL; in data set [2], under 0.1 µg/mL; in data set [3] it was under 0.1 µg/mL; at C. elegans Slo-1a, 1.26 nM. The molecule further displayed a chromatographic logP in data set [4] of 4.46.

For `Cc1nn2c(C(C)C)c(C(=O)N[C@H]3CCc4ccccc43)cnc2c1-c1ccccc1F` [Example 95], the EC50 in data set [1] was under 0.1 µg/mL; in data set [2], under 0.1 µg/mL; in data set [3], under 0.1 µg/mL; on C. elegans Slo-1a, 6.31 nM. This molecule also yielded a chromatographic logP in data set [4] of 4.41.

Consider `Cc1nn2c(N3CCOCC3)c(C(=O)N[C@H]3CCOc4ccccc43)cnc2c1-c1c(F)ccc(F)c1F` [Example 535], for which the EC50 was under 0.1 µg/mL in data set [1], under 0.1 µg/mL in data set [2], under 0.1 µg/mL in data set [3] and 2.51 nM on C. elegans Slo-1a. In data set [4], this molecule showed a chromatographic logP of 3.29.

Consider `Cc1nn2c(C(C)C)c(C(=O)N[C@H]3CCc4ccccc43)cnc2c1-c1cc(F)cc(F)c1` [Example 323], for which the EC50 in data set [1] was under 0.1 µg/mL; in data set [2], under 1 µg/mL; in data set [3] it was under 0.1 µg/mL; at C. elegans Slo-1a, 39.8 nM. This molecule also showed a chromatographic logP in data set [4] of 5.02.

On to `Cc1nn2c(N3CCOCC3)c(C(=O)N[C@H]3CCOc4ccccc43)cnc2c1-c1cccc(F)c1F` [Example 534], for which the EC50 in data set [1] was under 0.1 µg/mL; in data set [2], under 0.1 µg/mL; in data set [3] it was under 0.1 µg/mL; on C. elegans Slo-1a it was 3.16 nM. This molecule also had a chromatographic logP in data set [4] of 4.32.

As to `COc1cccc(-c2c(C)nn3c(C(C)C)c(C(=O)N[C@H]4CCOc5ccccc54)cnc23)c1` [Example 395], the EC50 in data set [1] was under 0.1 µg/mL; in data set [2], under 0.1 µg/mL; in data set [3], under 0.1 µg/mL; on C. elegans Slo-1a, 7.94 nM. In data set [4], this molecule came in with a chromatographic logP of 4.24.

Take `Cc1nn2c(C(C)C)c(C(=O)N[C@H]3CCc4ccccc43)cnc2c1-c1cc(F)cc(Cl)c1` [Example 324]: the EC50 is under 0.1 µg/mL in data set [1], under 0.1 µg/mL in data set [2], under 0.1 µg/mL in data set [3] and 31.6 nM on C. elegans Slo-1a. This molecule also had a chromatographic logP in data set [4] of 5.49.

Take `Cc1nn2c(C(C)C)c(C(=O)N[C@H]3CCc4ccccc43)cnc2c1-c1cc(Cl)ccc1Cl` [Example 171]: the EC50 in data set [1] is under 0.1 µg/mL; in data set [2], under 0.1 µg/mL; in data set [3], under 0.1 µg/mL; on C. elegans Slo-1a, 5.01 nM. In data set [4], this molecule gave a chromatographic logP of 5.31.

Regarding `Cc1nn2c(C(C)C)c(C(=O)N[C@H]3CCc4ccccc43)cnc2c1-c1cccc(Cl)c1Cl` [Example 168], the EC50 in data set [1] is under 0.1 µg/mL; in data set [2] it was under 0.1 µg/mL; in data set [3], under 0.1 µg/mL; at C. elegans Slo-1a it was 3.16 nM. In data set [4], the chromatographic logP turned out to be 5.13.

Take `COc1cccc(-c2c(C)nn3c(C4CC4)c(C(=O)N[C@H]4CCc5ccccc54)cnc23)c1` [Example 351]: the EC50 was under 0.1 µg/mL in data set [1], under 0.1 µg/mL in data set [2], under 0.1 µg/mL in data set [3] and 3.98 nM on C. elegans Slo-1a. For the same molecule, in data set [4], the chromatographic logP worked out at 3.74.

On to `Cc1nn2c(C(C)C)c(C(=O)N[C@H]3CCCc4ccccc43)cnc2c1-c1cccc(Cl)c1` [Example 45], for which the EC50 in data set [1] is under 0.1 µg/mL; in data set [2], under 1 µg/mL; in data set [3] it was under 0.1 µg/mL; on C. elegans Slo-1a, 50.1 nM. In data set [4], this molecule displayed a chromatographic logP of 5.51.

Turning to `Cc1nn2c(C3CC3)c(C(=O)N[C@H]3CCc4ccccc43)cnc2c1-c1ccccc1Cl` [Example 349], the EC50 in data set [1] was under 0.1 µg/mL; in data set [2] it was under 0.1 µg/mL; in data set [3], under 0.1 µg/mL; on C. elegans Slo-1a it was 2.51 nM. In addition, the chromatographic logP in data set [4] was 3.88.

Take `Cc1nn2c(C(C)C)c(C(=O)N[C@H]3CCc4ccccc43)cnc2c1-c1c(F)cccc1F` [Example 99]: the EC50 in data set [1] was under 0.1 µg/mL; in data set [2], under 0.1 µg/mL; in data set [3] it was under 0.1 µg/mL; at C. elegans Slo-1a, 10 nM. Further, the chromatographic logP in data set [4] was determined as 4.37.

Regarding `Cc1nn2c(C(C)C)c(C(=O)N[C@H]3CCOc4ccccc43)cnc2c1-c1cccc(F)c1` [Example 396], the concentration for a half-maximal effect (EC50) in data set [1] was under 0.1 µg/mL; in data set [2] it was under 0.1 µg/mL; in data set [3] it was under 0.1 µg/mL; on C. elegans Slo-1a, 15.8 nM. The chromatographic logP in data set [4] was 4.45.

For `Cc1nn2c(C3CC3)c(C(=O)N[C@H]3CCOc4ccccc43)cnc2c1-c1cccc(F)c1F` [Example 457], the EC50 in data set [1] is under 0.1 µg/mL; in data set [2], under 0.1 µg/mL; in data set [3], under 0.1 µg/mL; at C. elegans Slo-1a, 1.26 nM. For the same molecule, the chromatographic logP in data set [4] came out at 3.61.

Consider `Cc1nn2c(C(C)C)c(C(=O)N[C@H]3CCc4ccccc43)cnc2c1-c1cc(F)ccc1F` [Example 116], for which the EC50 is under 0.1 µg/mL in data set [1], under 0.1 µg/mL in data set [2], under 0.1 µg/mL in data set [3] and 10 nM at C. elegans Slo-1a. The molecule also came in with a chromatographic logP in data set [4] of 4.59.

Consider `Cc1ccccc1-c1c(C)nn2c(C(C)C)c(C(=O)N[C@H]3CCOc4ccccc43)cnc12` [Example 193], for which the half-maximal effective concentration (EC50) in data set [1] was under 0.1 µg/mL; in data set [2], under 0.1 µg/mL; in data set [3], under 0.1 µg/mL; on C. elegans Slo-1a, 0.794 nM. In data set [4], this molecule displayed a chromatographic logP of 4.44.

As for `Cc1nn2c(C3CC3)c(C(=O)N[C@H]3CCOc4ccccc43)cnc2c1-c1cc(Cl)cc(C(F)(F)F)c1` [Example 465], the EC50 in data set [1] is under 0.1 µg/mL; in data set [2], under 0.1 µg/mL; in data set [3], under 0.1 µg/mL; at C. elegans Slo-1a, 10 nM. In data set [4], this molecule displayed a chromatographic logP of 5.11.

With `Cc1nn2c(C(C)C)c(C(=O)N[C@H]3CCOc4ccccc43)cnc2c1-c1cc(Cl)ccc1Cl` [Example 173], the EC50 was under 0.1 µg/mL in data set [1], under 0.1 µg/mL in data set [2], under 0.1 µg/mL in data set [3] and 3.98 nM at C. elegans Slo-1a. For the same molecule, the chromatographic logP in data set [4] is 5.

`Cc1nn2c(C(C)C)c(C(=O)N[C@H]3CCc4ccccc43)cnc2c1-c1cccc(OC(F)F)c1` [Example 337]: the EC50 in data set [1] is under 0.1 µg/mL; in data set [2], under 1 µg/mL; in data set [3] it was under 0.1 µg/mL; on C. elegans Slo-1a it was 12.6 nM. Moreover, the chromatographic logP in data set [4] came to 4.7.

Consider `Cc1nn2c(C(C)C)c(C(=O)N[C@H]3CCCc4ccccc43)cnc2c1-c1cccc(Cl)c1Cl` [Example 169], for which the concentration for a half-maximal effect (EC50) in data set [1] is under 0.1 µg/mL; in data set [2], under 0.1 µg/mL; in data set [3], under 0.1 µg/mL; on C. elegans Slo-1a, 6.31 nM. Also, the chromatographic logP in data set [4] worked out at 5.46.

For `Cc1nn2c(C(C)C)c(C(=O)N[C@H]3CCc4ccccc43)cnc2c1-c1ccc(F)c(F)c1` [Example 103], the EC50 is under 0.1 µg/mL in data set [1], under 0.1 µg/mL in data set [2], under 0.1 µg/mL in data set [3] and 20 nM at C. elegans Slo-1a. In addition, in data set [4], the chromatographic logP turned out to be 4.82.
